This note sets out measurements from patent US12194080B2, “Methods for identification, assessment, prevention, and treatment of metabolic disorders using PM20D1 and N-lipidated amino acids” (Dana-Farber Cancer Institute, Inc., priority 2015, dated 2025).

In one assay the test system is U2OS cells. The assay can be described thus: Cellular oxygen consumption rate (uncoupled respiration), U2OS cells. It counts as cell-based, human. The following applies: 50 μM, after oligomycin 1 μM. Here is the method:
(§1) C2C12, U2O5, and 293A cells were cultured in DMEM with 10% FBS and pen/strep. Primary inguinal (iWAT) and brown (BAT) adipocytes were obtained as follows. The stromal-vascular fraction of inguinal (iWAT) pad from 4-12 week old male mice was dissected, minced, and digested for 45 min. at 37° C. in PBS containing 10 mM CaCl2, 2.4 U/ml dispase II (Roche), and 1.5 U/ml collagenase D (Roche). The stromal-vascular fraction of brown fat (BAT) pads from newborn (P1-P14) pups was dissected, minced, and digested for 45 min at 37° C. in PBS containing 1.3 mM CaCl2, 120 mM NaCl, 5 mM KCl, 5 mM glucose, 100 mM HEPES, 4% BSA, and 1.5 mg/ml collagenase B (Roche). Digested tissue was diluted with adipocyte culture media (DMEM/F-12, GlutaMAX™ supplement, Life Technologies, with 10% FBS and pen/strep) and centrifuged (600×g for 10 min.). The pellet was resuspended in 10 ml adipocyte culture media, strained through a 40 μm filter, and plated. Differentiation was induced by application of an adipogenic cocktail containing 5 μg/ml insulin (Sigma), 5 μM dexamethasone (Sigma), 250 μM isobutylmethylxanthine (Sigma), and 1 μM rosiglitazone (Cayman) for 2 days. Two days after induction, cells were maintained in adipocyte culture media containing 5 μg/ml insulin and 1 μM rosiglitazone.
(§2) Cellular oxygen consumption rates were determined using an XF24 Extracellular Flux Analyzer (Seahorse Biosciences). Oligomycin was purchased from EMD Millipore, and FCCP and rotenone were purchased from Sigma. C2C12 or U2OS cells were seeded at 30,000 or 50,000 cells/well, respectively in an XF24 cell culture microplate (V7-PS, Seahorse Bioscience) and analyzed the following day. Primary iWAT or BAT adipocytes were seeded at 15,000 cells/well, differentiation was induced the following day as described, and the cells were analyzed on day 5. On the day of analysis, the cells were washed once with Seahorse respiration buffer (8.3 g/1 DMEM, 1.8 g/l NaCl, 1 mM pyruvate, 20 mM glucose, pen/strep), placed in 0.5 ml Seahorse respiration buffer, and incubated in a CO2-free incubator for 1 hr. Port injection solutions were prepared as follows (final concentrations in assay in parentheses): 10 μM oligomycin (1 μM final), […] amino acid (50 μM final), 2 μM FCCP (0.2 μM final), and 30 μM rotenone (3 μM final). The Seahorse program was run as follows: basal measurement, 3 cycles; inject port A (oligomycin), 3 cycles; inject port B (compounds), 8 cycles; inject port C (FCCP), 3 cycles; inject port D (rotenone), 3 cycles. Each cycle consisted of mix 4 min, wait 0 min, and measure 2 min. For data expressed as a percentage of oligomycin-treated basal, the respiration at cycle 6 was normalized to 100%, and the maximum respiration at any time point between cycles 7 and 15 inclusive was used.

Assay [1] relates to primary inguinal fat cells, primary BAT cells, C2C12 cells, and U2OS cells. Briefly: Uncoupled respiration cellular assays (variety of cell types). Type of assay: cell-based. Particulars: N-acyl amino acids at 10-100 uM. How it is done: as §2
Assay [2] has as its target T1, mouse PM20D1 (Mus musculus, UniProt Q8C165).
T1 construct: Full-length mouse Pm20d1 cDNA (GE Dharmacon) was subcloned with an in-frame C-terminal 6× His and FLAG® tag; made in house; host or cells: 293A (HEK293A) cells stably infected with retrovirus
T1 sequence (Q8C165 25-503): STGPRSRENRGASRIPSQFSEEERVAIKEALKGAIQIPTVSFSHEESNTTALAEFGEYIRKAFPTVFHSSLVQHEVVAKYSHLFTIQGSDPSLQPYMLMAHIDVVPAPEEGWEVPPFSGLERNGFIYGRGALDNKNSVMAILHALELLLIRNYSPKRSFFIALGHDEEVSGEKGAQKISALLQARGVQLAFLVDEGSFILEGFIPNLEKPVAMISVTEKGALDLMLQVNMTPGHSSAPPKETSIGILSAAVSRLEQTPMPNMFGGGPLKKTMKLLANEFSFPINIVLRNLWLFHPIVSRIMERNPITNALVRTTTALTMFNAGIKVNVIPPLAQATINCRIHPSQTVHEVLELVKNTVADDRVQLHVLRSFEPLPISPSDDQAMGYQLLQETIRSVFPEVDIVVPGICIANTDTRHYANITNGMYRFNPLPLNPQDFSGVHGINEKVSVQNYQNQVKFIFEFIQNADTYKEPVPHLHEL
Briefly: In vitro PM20D1-catalyzed synthesis of N-acyl amino acids. It counts as biochemical. The following applies: head group 100 μM; oleate or arachidonate 1.5 mM, C18:1-CoA 0.7 mM. How it is done: (§3) The concentrated media was centrifuged to remove debris (600×g, 10 min, 4° C.) and the supernatant containing PM20D1-flag was decanted into a new tube. PM20D1-Flag was immunoaffinity purified overnight at 4° C. from the concentrated media using magnetic Flag-M2 beads (Sigma Aldrich). The beads were collected, washed three times in PBS, eluted with 3× Flag peptide ([…] in PBS, Sigma Aldrich), aliquoted, and stored at −80° C. For the purification of human PM20D1-flag, hPM20D1-flag plasmid (Origene) was transiently transfected into 293A cells. After two days, the media was changed, harvested 24 h later, concentrated, and purified exactly as described above.
(§4) In vitro PM20D1-catalyzed synthesis of N-acyl amino acids was measured by incubating purified PM20D1 protein with oleate (1.5 mM) and phenylalanine (0.1 mM) in PBS (to 100 μl final volume) at 37° C. for 1.5 hrs. In vitro PM20D1-catalyzed N-acyl amino acid hydrolysis was measured by incubating purified PM20D1 protein with the indicated N-acyl amino acid (0.1 mM) in PBS (to 100 μl final volume) at 37° C. for 1.5 hrs. Reactions were terminated by placing the vials at −80° C. and the products generated in vitro were analyzed by mass spectroscopy (MS).
(§5) Briefly, frozen serum (30 μl) for polar metabolomic analyses were extracted in 160 μl of 1:1 acetonitrile/methanol with inclusion of internal standard D3, ^15N-serine (1 nmol). Activity assays (100 μl) were extracted in 400 μl 1:1 acetonitrile/methanol. Following 30 s of thorough vortexing and 1 min of bath sonication, the polar metabolite fraction (supernatant) was isolated by centrifugation at 13,000×g for 10 min. Ten μl of this supernatant was analyzed by SRM-based targeted LC-MS/MS, or untargeted LC-MS.
(§6) For separation of polar metabolites, normal-phase chromatography was performed with a […] column (50 mm×4.60 mm, Phenomenex). Mobile phases were as follows: Buffer A, acetonitrile; Buffer B, 95:5 water/acetonitrile with 0.1% formic acid or 0.2% ammonium hydroxide with 50 mM ammonium acetate for positive and negative ionization mode, respectively. The flow rate for each run started at 0.2 ml/min for 2 min, followed by a gradient starting at 0% B and increasing linearly to 100% B over the course of 15 min with a flow rate of 0.7 ml/min, followed by an isocratic gradient of 100% B for 10 min at 0.7 ml/min before equilibrating for 5 min at 0% B with a flow rate of 0.7 ml/min. MS analysis was performed with an electrospray ionization (ESI) source on an Agilent 6430 QQQ LC—MS/MS. The capillary voltage was set to 3.5 kV, and the fragmentor voltage was set to 100 V. The drying gas temperature was 325° C., the drying gas flow rate was 10 l/min, and the nebulizer pressure was 45 psi. For polar targeted and untargeted metabolomic analysis, representative metabolites were quantified by SRM of the transition from precursor to product ions (corresponding to amino acid fragment) at associated collision energies. Several representative fragmentation ions are as follows: C18:1-Ala, 352>88; C18:1-Gly, 338>74; C18:1-Phe, 428>164; C18:1-Leu/Ile, 394>130; C20:4-Phe, 450>164; C20:4-Leu/Ile, 416>130. Untargeted LC-MS was performed by scanning a mass range of m/z 50-1200, and data were exported as mzdata files and uploaded to XCMSOnline (xcmsserver.nutr.berkeley.edu) to identify metabolites that were differentially changed. For targeted metabolomics analysis, metabolites were quantified by integrating the area under the peak and were normalized to internal standard values corresponding to 1 nmol D3, ^15N-serine.

The test system of assay [3] is differentiated primary iWAT cells. The assay can be described thus: Cellular oxygen consumption rate (Seahorse XF24), differentiated primary iWAT adipocytes. The following applies: 50 μM, in presence of oligomycin; control fatty acid. It counts as cell-based, mouse. How it is done:
as §1, §2

Assay [4] deals with Diet induced obese (DIO) mice. The assay can be described thus: Chronic daily i.p. administration of N-acyl amino acids to DIO mice (body weight, food intake, body composition, GTT). Type of assay: in vivo, mouse. Particulars: for body weight lost: after 8 days treatment, mean±SEM. Here is the method: (§7) Animal experiments were performed according to procedures approved by the Beth Israel Deaconess Medical Center IACUC. Mice were maintained in 12 h light-dark cycles at 22° C. and fed a standard irradiated rodent chow diet. All experiments on wild-type mice were performed with male C57BL/6 mice purchased from Jackson Laboratories, except for the AAV experiments, which were performed with male C57BL/6 mice from Charles River. UCP1-KO (stock #017476) and 16-20 week DIO mice (stock #380050) were obtained from Jackson Laboratories. For AAV injection experiments, mice were gently warmed using a 250 W clear infrared heat lamp, immobilized, and injected via tail vein with 10^10 virus/mouse (diluted in saline) in a total volume of 100 μl/mouse. Where indicated, mice were placed on high-fat diet (60% fat, Research Diets). For cold exposure experiments, mice were group housed and placed at 4° C. for the indicated times. For the preparation of C18:1-Phe for in vivo injections, compounds were dissolved in 18:1:1 v/v/v saline:Kolliphor® EL (Sigma Aldrich):DMSO and sonicated until homogeneous. Mice were administered compounds at 5 μl/g body weight at the indicated doses. For all injection experiments, mice were mock injected with saline daily for 3 days prior to the start of the experiments. For glucose tolerance tests (GTTs), mice received their final dose of compound the day prior to the assay and were then fasted overnight. Glucose was administered at 1.5 g/kg.
(§8) Energy expenditure, O2 consumption, CO2 production, respiratory exchange ratio, total locomotor activity, and food intake measurements were made with a 16-cage Columbus Instruments Oxymax Comprehensive Lab Animal Monitoring System (CLAMS) at ambient room temperature (21-23° C.). Mice were acclimated for one day in metabolic cages prior to data collection. Whole-body composition was assessed with an EchoMRI™ 3-in-1 on conscious mice.

Assay [5] addresses T1, mouse PM20D1. The assay can be described thus: In vitro PM20D1-catalyzed N-acyl amino acid hydrolysis. Type of assay: biochemical. Particulars: N-acyl amide substrate 100 μM. Here is the method:
as §3, §4, §5, §6

Assay [6] deals with Diet induced obese (DIO) mice. Briefly: Indirect calorimetry (CLAMS) of high fat diet/DIO mice treated with N-acyl amino acids. It counts as in vivo, mouse. Here is the method: as §7, §8
The next assay deals with C2C12 cells. The assay can be described thus: Cellular oxygen consumption rate (uncoupled respiration), C2C12 cells. It counts as cell-based, mouse. Particulars: 50 μM, after oligomycin 1 μM. How it is done: as §1, §2
[7] abbreviates: daily i.p.: C18:1-Leu 25, C18:1-Phe 30, C20:4-Gly 15 mg/kg/day.

On to `CCCCCCCCCCCC(=O)N[C@@H](Cc1ccccc1)C(=O)O` [N-lauroyl phenylalanine, Dodecanoyl-L-phenylalanine], for which the “uncoupling activity (uncoupled respiration)” value (from here on “uncoupling activity”) in the assay on U2OS cells is given as “completely lacked uncoupling activity”. Further, the “uncoupled respiration in cells” value in assay [1] is “inactive”.
For the molecule `CCCCC/C=C\C/C=C\C/C=C\C/C=C\CCCC(=O)O` [arachidonate, arachidonic acid, reference compound], the “substrate of the PM20D1 synthase reaction” value on mouse PM20D1 [2] is recorded as “capable of using arachidonate as a fatty acid donor”. For the same molecule, the oxygen consumption rate entry in assay [3] is listed as “increased the oxygen consumption rate very modestly”.
Turning to `CCCCCCCC/C=C\CCCCCCCC(=O)[O-].[Na+]` [oleate, sodium oleate, reference compound], the “substrate of the PM20D1 synthase reaction” value on mouse PM20D1 [2] is reported as “strong preference for free oleate over oleoyl-coenzyme A”. Besides, the “uncoupled respiration in cells” value in assay [1] was “inactive”. Also, the body weight lost in assay [4] (25 mg/kg, i.p., daily) was found to be 0.3 ± 0.2 g.
As for `CCCCCCCC/C=C\CCCCCCCC(=O)NCCO` [N-oleoyl ethanolamine, reference compound], the results for the “substrate of the PM20D1 hydrolysis reaction” value on mouse PM20D1 [5] and at mouse PM20D1 [5] (listed as C18:1-EA) were “does not hydrolyze” and “not a PM20D1 substrate”, respectively. Also, in assay [1], the “uncoupled respiration in cells” value is “inactive”.
Turning to `CCCCCCCCCCCCCCCCCC(=O)N[C@@H](Cc1ccccc1)C(=O)O` [N-stearoyl phenylalanine, Stearoyl-L-phenylalanine], the “uncoupling activity” value in the assay with U2OS cells is “possessed uncoupling activity”. Further, in assay [1], the “uncoupled respiration in cells” value is on record as “increased uncoupled respiration”.
Taken in the same sequence, the figures for `CCCCCCCCCCCCCCCCCCCC(=O)N[C@@H](Cc1ccccc1)C(=O)O` [N-arachidoyl phenylalanine, Icosanoyl-L-phenylalanine] were “completely lacked uncoupling activity” and “inactive”.
As to `CCCCCCCC/C=C\CCCCCCCC(=O)N[C@@H](CC(C)C)C(=O)O` [C18:1-Leu, Oleoyl-L-leucine], in assay [6] (C18:1-Leu 25 mg/kg/day i.p.), the RER entry was “significantly lower” and the VCO2 entry was “significantly augmented”. For the same molecule, in assay [6] (C18:1-Leu 25 mg/kg/day i.p., metabolic cages), the “food intake over the final two days of the experiment” value is reported as “reduced food intake”. For the same molecule, in assay [6] (setting [7]), the VO2 result is “significantly augmented” and the movement entry was “slightly reduced”. In assay [4] (25 mg/kg, i.p., daily), the “reduction of food intake versus vehicle-treated mice” value is listed as 17% and the body weight lost was found to be 4.1 ± 0.3 g. Further, the “body composition analysis (weight loss)” value in assay [4] (25 mg/kg/day i.p., MRI) was “entirely accounted for by a difference in fat mass”. In addition, the GTT entry in assay [4] (25 mg/kg/day i.p., glucose 1.5 g/kg, versus vehicle- or oleate-treated mice) is reported as “improvements”. The “uncoupling activity” value in the assay with C2C12 cells is reported as “significantly more potent than the free fatty acid alone”.
